The structures appear in SMILES notation.

The test system of assay [1] is mdx/utrn−/− mice. Description: Contracture assay in mdx/utrn−/− mice. The class given is in vivo, mouse. Conditions: 35th day of treatment. The procedure:
mdx/utrn−/− mice lack both dystrophin and utrophin, and were bred and genotyped as reported in Burkin, et al., Enhanced expression of the alpha 7 beta 1 integrin reduces muscular dystrophy and restores viability in dystrophic mice, J. Cell Biol. 152:1207-18 (2001). 240 mg/kg body weight of VPA was injected intraperitoneally twice daily into mdx/utrn^−/− mice (n=9) starting at 3 weeks of age, for a period of 5 weeks. Control mice were injected with saline (n=9). Body-weights were determined daily. On the 35th day of treatment, mdx/utrn^−/− mice injected with saline (n=9) or VPA (n=9) were tested for contractures in their hind limbs as follows: mice were placed on a flat table and were lifted by their tails so that their fore-limbs touched the table-surface and their hindquarters were in air. The positions of the hind-limbs were photographed. Normally, mice in this position extend their hind-limbs. The presence of contractures in dystrophic mice prevents full extension.

The test system of assay [2] is p70S6K. Description: Western blotting of activated p70S6K in α7+/− myotubes. The format is cell-based, mouse. Conditions: VPA for 48 or 72 hours. How it is done: α7^+/− myogenic cells were cultured on 1% gelatin-coated plastic plates in Ham's F-10 growth medium (20% FBS, 0.5% chick embryo extract, 5 ng/ml bFGF, 2 mM glutamine, 100 U/ml penicillin and 100 μg/ml streptomycin). After six passages, cells were grown in DMEM containing 20% FBS, 0.5% chick embryo extract, 2 mM glutamine, 100 U/ml penicillin and 100 μg/ml streptomycin. Differentiation was induced by switching the medium to DMEM containing 2% horse serum and antibiotics when cells attained 90% confluence. After 48 hours of differentiation, 2 mM VPA was added and supplied fresh every 24 hours. Wortmannin was used at 100 nM and added fresh every 24 hours.
(§1) Cell lysates of differentiating cells on 60 mm dishes were prepared as follows: the cells were washed twice with PBS and 200 μl Triton X-100 lysis buffer (2% Triton X-100, 20 mM Tris-Cl, pH 7.4, 150 mM NaCl, 1 mM EDTA, 1 mM EGTA, 2.5 mM NaPPi, 1 mM β-glycerophosphate, 1 mM sodium vanadate, 1:200 Protease Inhibitor Cocktail (EMD Chemicals, San Diego, Calif.) and 1 mM PMSF) were added. […] Protein concentrations were determined by the Bradford assay. […] The supernatants were collected and protein concentrations were determined spectrophotometrically at OD260 and OD280. […] ImageQuant analysis software (Molecular Dynamics, Sunnyvale, Calif.) was used to quantify band intensity.

The test system of assay [3] is α7 integrin. Description: Western blotting of α7 integrin in muscle extracts of mdx/utrn−/− mice. Particulars: 240 mg/kg i.p. twice daily for 5 weeks. The format is in vivo, mouse. The procedure: mdx/utrn−/− mice lack both dystrophin and utrophin, and were bred and genotyped as reported in Burkin, et al., Enhanced expression of the alpha 7 beta 1 integrin reduces muscular dystrophy and restores viability in dystrophic mice, J. Cell Biol. 152:1207-18 (2001). 240 mg/kg body weight of VPA was injected intraperitoneally twice daily into mdx/utrn^−/− mice (n=9) starting at 3 weeks of age, for a period of 5 weeks. Control mice were injected with saline (n=9). Body-weights were determined daily.
as §1, with “added. The cells were scraped and transferred into Eppendorf tubes, the cell suspensions were triturated and centrifuged at 8000×g at 4° C. for 10 minutes, and the supernatants were collected.” for “added.”

As to `CCCC(CCC)C(=O)O` [VPA, valproic acid], the “proportion of mice with contractures” value in assay [1] (240 mg/kg i.p. twice daily, n=9) is 11.1%. The “proportion with contractures, saline-injected group higher compared to VPA-injected group” value in assay [1] was “approximately 4 fold”. For the same compound, in assay [2], the “levels of activated p70S6K” value was “higher levels”. In addition, in assay [3], the “α7 integrin in muscle extracts, saline versus VPA injected mice” value was “did not show changes”.
